Test results reported in article PMC4143292, “An Enzymatic Platform for the Synthesis of Isoprenoid Precursors” (PLoS ONE, 2014).

Target: T1, DPM-DC (diphosphomevalonate decarboxylase) (Streptococcus pneumoniae, UniProt A0A0H2UNP0)
T1 construct: gene mvaD; N-terminal His9-GST tag removed with PreScission protease; expressed in E. coli BL21(DE3)
T1 sequence (A0A0H2UNP0 1-317): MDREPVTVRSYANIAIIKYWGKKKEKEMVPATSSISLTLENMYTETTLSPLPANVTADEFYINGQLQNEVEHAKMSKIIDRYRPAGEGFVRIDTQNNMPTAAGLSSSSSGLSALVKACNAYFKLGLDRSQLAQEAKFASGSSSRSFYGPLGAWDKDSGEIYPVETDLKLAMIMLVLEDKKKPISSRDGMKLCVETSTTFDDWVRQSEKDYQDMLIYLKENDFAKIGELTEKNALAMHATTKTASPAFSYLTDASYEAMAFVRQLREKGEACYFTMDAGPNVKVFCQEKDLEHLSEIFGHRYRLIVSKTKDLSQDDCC
Assay: PK/LDH-coupled NADH oxidation
Assay type: biochemical
Conditions: ATP 2.0 mM, MgCl2 1.0 mM + nucleotide, KCl 50 mM, Hepes pH 8.0, 25 C

C[C@@](O)(CCOP(=O)(O)OP(=O)(O)O)CC(=O)O [DPM]
PK/LDH-coupled NADH oxidation: DPM formation was assayed by adding an aliquot the DPM-synthesis reaction into a DPM decarboxylase
